Test system: G-401 tumor spheroids, viability % test/control
Assay: Anticancer human tumor G-401 cell line growth inhibition;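 also: spheroids exposed to compound for 7 days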;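 as to viability, T/C: 100% = DMSO vehicle-treated spheroids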
Conditions: spheroids with HUVEC and MSC; for IC50: curve of first compound; for viability, T/C: stronger effect = lower value
Text: Multicellular complex tumor spheroid response to DNA repair inhibitors in combination with DNA-damaging drugs
This study explores the anticancer activities of DNA-damaging drugs and inhibitors of DNA damage repair, both as single agents and in combinations. Complex tumor spheroids comprised of malignant cells, endothelial cells and mesenchymal stem cells served as an in vitro model for human solid tumors. This model system incorporates physiologically relevant features and patient-derived or established malignant cell lines with clinically relevant genetic alterations from many tumor types. Twenty-six patient-derived or established malignant cell lines were evaluated representing sarcoma, melanoma, small cell lung cancer (SCLC), non-small cell lung cancer (NSCLC), as well as bladder, ovarian and pancreatic cancers. The concentration ranges selected for each drug and investigational agent were based upon clinically achievable concentrations if the clinical Cmax of the agent was known.
Compounds. The drugs and compounds olaparib (NSC753686), talazoparib (NSC767125), berzosertib (NSC777718), elimusertib (NSC800525), nedisertib (NSC802822), VX-984 (NSC792969), AZD-1390 (NSC803789), temozolomide (NSC362856), topotecan (NSC609699), trabectedin (NSC813783), staurosporine (NSC755774), and gemcitabine (NSC613327) were obtained from the National Cancer Institute (NCI) Developmental Therapeutics Program Chemical Repository. The FDA-approved anticancer drug set is available from the Developmental Therapeutics Program at https://dtp.cancer.gov/organization/dscb/obtaining/available_plates.htm. […] The stock solutions were prepared in dimethyl sulfoxide (DMSO, Sigma-Aldrich, St. Louis, MO, cat. D2650) at 400-fold the tested concentration and stored at -70 degrees C. Prior to their use, the stock solutions were diluted in fresh medium and the final DMSO concentration in the assay was 0.25% (v/v). All drugs and investigational agents were tested over a range starting from a high concentration at or near the clinical Cmax and decreasing in half-log increments. If the clinical Cmax for an agent had not been determined, the highest concentration tested was 10 microM.
Cell Lines. The patient-derived cancer cell (PDC) lines: 156681-154-R-J1-PDC, 283228-195-R-J1-PDC, 287954-098-R-J1-PDC, 292921-168-R-J2-PDC, 349418-098-R-PDC, 425362-245-T-J1-PDC, 556581-035-R-J1-PDC, and BL0293-F563-PDC were received from the NCI Patient-Derived Models Repository (PDMR, https://pdmr.cancer.gov). The established cell lines HS-SY-2 (RRID:CVCL_8719), MPNST, and SYO-1 (RRID:CVCL_7146) were obtained from the Sloan Kettering Institute. The alveolar soft parts sarcoma cell line ASPS-1 (RRID:CVCL_S738) was established at the NCI and grown from internal seed stocks. The following established cell lines were purchased from the American Type Culture Collection (ATCC, Manassas, VA): G-401 (ATCC, cat. CRL-1441, RRID:CVCL_0270), SW982 (ATCC, cat. HTB-93, RRID:CVCL_1734), VA-ES-BJ (ATCC, cat. CRL-2138, RRID:CVCL_1785), NCI-H719 (ATCC, cat. CRL-5837, RRID:CVCL_1582), NCI-H196 (ATCC, cat. CRL-5823, RRID:CVCL_1509), NCI-H841 (ATCC, cat. CRL-5845, RRID:CVCL_1595), NCI-H1618 (ATCC, cat. CRL-5879, RRID:CVCL_1480), NCI-H1876 (ATCC, cat. CRL-5902, RRID:CVCL_1503), DMS 114 (ATCC, cat. CRL-2066; RRID:CVCL_1174), NCI-H211 (ATCC, cat. CRL-5824; RRID:CVCL_1529), and SW 1271 (ATCC, cat. CRL-2177, RRID:CVCL_1716). The small cell lung cancer cell line COR-L88 was purchased from Sigma-Aldrich (cat. 92031917-1VL, RRID:CVCL_1141). The non-small cell lung cancer cell lines NCI-H226 (RRID:CVCL_1544) and NCI-H322M (RRID:CVCL_1557) were established at the NCI and grown from internal seed stocks. Pooled donor human umbilical vein endothelial cells (HUVEC, Lonza, cat. CC-2519) and human mesenchymal stem cells (hMSC, Lonza, cat. PT-2501) were purchased from Lonza (Walkersville, MD).
Cell Culture. All cells were maintained in an incubator at 37 degrees C and 5% CO2 with 95% humidity. […]

[1] = second compound 0.003 µM, first compound 0.0949 µM
[2] = second compound 0.003 µM, first compound 0.3 µM
[3] = second compound 0.003 µM, first compound 0.949 µM
[4] = second compound 0.003 µM, first compound 3 µM
[5] = second compound 0.00949 µM, first compound 0.0949 µM
[6] = second compound 0.00949 µM, first compound 0.3 µM
[7] = second compound 0.00949 µM, first compound 0.949 µM
[8] = second compound 0.00949 µM, first compound 3 µM
[9] = second compound 0.03 µM, first compound 0.0949 µM
[10] = second compound 0.03 µM, first compound 0.3 µM
[11] = second compound 0.03 µM, first compound 0.949 µM
[12] = second compound 0.03 µM, first compound 3 µM
[13] = second compound 0.0949 µM, first compound 0.0949 µM
[14] = second compound 0.0949 µM, first compound 0.3 µM
[15] = second compound 0.0949 µM, first compound 0.949 µM
[16] = second compound 0.0949 µM, first compound 3 µM
[17] = second compound 0.3 µM, first compound 0.0949 µM
[18] = second compound 0.3 µM, first compound 0.3 µM
[19] = second compound 0.3 µM, first compound 0.949 µM
[20] = second compound 0.3 µM, first compound 3 µM

Structure (SMILES) | IC50 (second compound 0.003 µM) [nM] | IC50 (second compound 0.00949 µM) [nM] | IC50 (second compound 0.03 µM) [nM] | IC50 (second compound 0.0949 µM) [nM] | IC50 (second compound 0.3 µM) [nM] | viability, T/C [1] [%] | viability, T/C [2] [%] | viability, T/C [3] [%] | viability, T/C [4] [%] | viability, T/C [5] [%] | viability, T/C [6] [%] | viability, T/C [7] [%] | viability, T/C [8] [%] | viability, T/C [9] [%] | viability, T/C [10] [%] | viability, T/C [11] [%] | viability, T/C [12] [%] | viability, T/C [13] [%] | viability, T/C [14] [%] | viability, T/C [15] [%] | further results
Cn1ncnc1[C@H]1c2n[nH]c(=O)c3cc(F)cc(c23)N[C@@H]1c1ccc(F)cc1 + CC[C@@]1(O)C(=O)OCc2c1cc1n(c2=O)Cc2cc3c(CN(C)C)c(O)ccc3nc2-1 | < 9.49 | < 9.49 | < 9.49 | < 9.49 | < 9.49 | 22.9 | 14.9 | 13.6 | 8.75 | 11.5 | 10.4 | 8.82 | 7.7 | 6.78 | 6.5 | 6.42 | 5.33 | 6.01 | 5.6 | 5.23 | viability, T/C (second compound 0.003 µM, first compound 0.00949 µM): 30.3%; viability, T/C (second compound 0.003 µM, first compound 0.03 µM): 25.3%; viability, T/C (second compound 0.00949 µM, first compound 0.00949 µM): 14.6%; viability, T/C (second compound 0.00949 µM, first compound 0.03 µM): 14.9%; viability, T/C (second compound 0.03 µM, first compound 0.00949 µM): 8.82%; viability, T/C (second compound 0.03 µM, first compound 0.03 µM): 7.7%; viability, T/C (second compound 0.0949 µM, first compound 0.00949 µM): 6.07%; viability, T/C (second compound 0.0949 µM, first compound 0.03 µM): 5.84%; viability, T/C [16]: 3.98%; viability, T/C (second compound 0.3 µM, first compound 0.00949 µM): 4.4%; viability, T/C (second compound 0.3 µM, first compound 0.03 µM): 4.94%; viability, T/C [17]: 4.58%; viability, T/C [18]: 4.17%; viability, T/C [19]: 3.92%; viability, T/C [20]: 2.85%
O=C(c1cc(Cc2n[nH]c(=O)c3ccccc23)ccc1F)N1CCN(C(=O)C2CC2)CC1 + CC[C@@]1(O)C(=O)OCc2c1cc1n(c2=O)Cc2cc3c(CN(C)C)c(O)ccc3nc2-1 | 991 | < 94.9 | < 94.9 | < 94.9 | < 94.9 | 49.4 | 51.8 | 52.1 | 43.9 | 18.2 | 19.1 | 24 | 18.4 | 9.43 | 10.1 | 10.1 | 9.87 | 7.02 | 6.74 | 7.7 | viability, T/C (second compound 0.003 µM, first compound 9.49 µM): 28.3%; viability, T/C (second compound 0.003 µM, first compound 30 µM): 13.6%; viability, T/C (second compound 0.00949 µM, first compound 9.49 µM): 17.2%; viability, T/C (second compound 0.00949 µM, first compound 30 µM): 12.4%; viability, T/C (second compound 0.03 µM, first compound 9.49 µM): 9.41%; viability, T/C (second compound 0.03 µM, first compound 30 µM): 9.05%; viability, T/C [16]: 7.1%; viability, T/C (second compound 0.0949 µM, first compound 9.49 µM): 6.71%; viability, T/C (second compound 0.0949 µM, first compound 30 µM): 7.06%; viability, T/C [17]: 4.94%; viability, T/C [18]: 5.39%; viability, T/C [19]: 5.37%; viability, T/C [20]: 6.35%; viability, T/C (second compound 0.3 µM, first compound 9.49 µM): 5.22%; viability, T/C (second compound 0.3 µM, first compound 30 µM): 6.07%
